The record followed here is US10336762B2 (priority 2017, dated 2019).

Where only a bound is given, the exact number is not on record here.

In one experiment the test system is TNFα. The experiment can be described thus: cells. The class given is cell-based, human. The following applies: Homo sapiens, Monocyte, LPS-stimulated human monocytes, TNFα content; read-out: EC50 TNF.
For a further experiment, the target named is IRAK4 enzyme (Homo sapiens (Human), UniProt Q9NWZ3). As to the kind of experiment: biochemical. The experiment is classed as biochemical. The following applies: IRAK4 enzyme, TR-FRET (HTRF), 500 μM ATP.
IRAK4 enzyme, sequence (Q9NWZ3 whole entry): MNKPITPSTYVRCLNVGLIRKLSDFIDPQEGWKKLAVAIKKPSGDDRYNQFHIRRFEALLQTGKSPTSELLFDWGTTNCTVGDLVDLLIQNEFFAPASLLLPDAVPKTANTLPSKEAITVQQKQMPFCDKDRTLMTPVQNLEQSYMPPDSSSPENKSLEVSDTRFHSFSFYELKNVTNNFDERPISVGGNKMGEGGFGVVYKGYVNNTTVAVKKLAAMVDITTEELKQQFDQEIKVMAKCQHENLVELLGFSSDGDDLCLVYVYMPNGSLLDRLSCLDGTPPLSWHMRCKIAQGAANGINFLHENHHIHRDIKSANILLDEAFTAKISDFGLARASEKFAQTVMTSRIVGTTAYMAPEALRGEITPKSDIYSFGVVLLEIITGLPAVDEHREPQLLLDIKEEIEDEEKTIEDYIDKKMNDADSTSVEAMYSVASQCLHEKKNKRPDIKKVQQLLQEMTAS

Broadly, the EC50 is the concentration at which the effect is half-maximal. As a reminder, the IC50 is the midpoint of a concentration-inhibition curve. Consider `CC(C)(O)[C@H](F)CNC(=O)c1cnc(-c2ccc3cc(C#N)cnn23)cc1NC1CC2(CNC(=O)O2)C1` (stereo partly drawn) [Example 763, (R)-6-(3-cyanopyrrolo[1,2-b]pyridazin-7-yl)-N-(2-fluoro-3-hydroxy-3-methylbutyl)-4-((6-oxo-5-oxa-7-azaspiro[3.4]octan-2-yl)amino)nicotinamide], for which the half-maximal effective concentration (EC50) in the experiment on TNFα was 155 nM. At IRAK4 enzyme, this compound had a half-maximal inhibitory concentration (IC50) of less than 1 nM.

For `CC(C)(O)[C@H](F)CNC(=O)c1cnc(-c2ccc3cc(C#N)cnn23)cc1Nc1ccc(-n2cncn2)nc1` [Example 766, (R)-4-((6-(1H-1,2,4-triazol-1-yl)pyridin-3-yl)amino)-6-(3-cyanopyrrolo[1,2-b]pyridazin-7-yl)-N-(2-fluoro-3-hydroxy-3-methyl-butyl)nicotinamide], the concentration for a half-maximal effect (EC50) in the experiment with TNFα turned out to be 38 nM. The half-maximal inhibitory concentration (IC50) on IRAK4 enzyme was less than 1 nM.

In the case of `CC(C)(O)[C@H](F)CNC(=O)c1cnc(-c2ccc3cc(C#N)cnn23)cc1Nc1ccc(-n2ccnc2)cc1` [Example 767, (R)-4-((4-(1H-imidazol-1-yl)phenyl)amino)-6-(3-cyanopyrrolo[1,2-b]pyridazin-7-yl)-N-(2-fluoro-3-hydroxy-3-methylbutyl)nicotinamide], in the experiment on TNFα, the concentration giving a half-maximal response (EC50) was found to be 35 nM. The same compound came in with an IC50 against IRAK4 enzyme of less than 1 nM.

Consider `CC(C)(O)[C@H](F)CNC(=O)c1cnc(-c2ccc3cc(C#N)cnn23)cc1Nc1ccc(-n2ccnc2)nc1` [Example 768, (R)-4-((6-(1H-imidazol-1-yl)pyridin-3-yl)amino)-6-(3-cyanopyrrolo[1,2-b]pyridazin-7-yl)-N-(2-fluoro-3-hydroxy-3-methyl-butyl)nicotinamide], for which, in the experiment with TNFα, the EC50 was determined as 24 nM. Further, the concentration for half-maximal inhibition (IC50) against IRAK4 enzyme is less than 1 nM.

Take `CC(C)(O)[C@H](F)CNC(=O)c1cnc(-c2ccc3cc(C#N)cnn23)cc1Nc1ccc(-n2cccn2)cc1` [Example 769, (R)-4-((4-(1H-pyrazol-1-yl)phenyl)amino)-6-(3-cyanopyrrolo[1,2-b]pyridazin-7-yl)-N-(2-fluoro-3-hydroxy-3-methylbutyl)nicotinamide]: the half-maximal effective concentration (EC50) in the experiment with TNFα was found to be 44 nM. Besides, the 50% inhibitory concentration (IC50) on IRAK4 enzyme is less than 1 nM.

Consider `CC(C)(O)[C@H](F)CNC(=O)c1cnc(-c2ccc3cc(C#N)cnn23)cc1Nc1ccc(-n2cccn2)nc1` [Example 770, (R)-4-((6-(1H-pyrazol-1-yl)pyridin-3-yl)amino)-6-(3-cyanopyrrolo[1,2-b]pyridazin-7-yl)-N-(2-fluoro-3-hydroxy-3-methyl-butyl)nicotinamide], for which the EC50 in the experiment with TNFα is 50 nM. This compound also returned an IC50 against IRAK4 enzyme of less than 1 nM.

For the compound `CC(C)(O)[C@H](F)CNC(=O)c1cnc(-c2ccc3cc(C#N)cnn23)cc1Nc1ccc(-c2nncs2)cc1` [Example 771, (R)-4-((4-(1,3,4-thiadiazol-2-yl)phenyl)amino)-6-(3-cyanopyrrolo[1,2-b]pyridazin-7-yl)-N-(2-fluoro-3-hydroxy-3-methylbutyl)nicotinamide], the concentration giving a half-maximal response (EC50) in the experiment with TNFα came to 37 nM. Also, the IC50 at IRAK4 enzyme is less than 1 nM.

Regarding `CC(C)(O)[C@H](F)CNC(=O)c1cnc(-c2ccc3cc(C#N)cnn23)cc1Nc1ccc(-n2cnnc2)cc1` [Example 772, (R)-4-((4-(4H-1,2,4-triazol-4-yl)phenyl)amino)-6-(3-cyanopyrrolo[1,2-b]pyridazin-7-yl)-N-(2-fluoro-3-hydroxy-3-methylbutyl)nicotinamide], in the experiment with TNFα, the EC50 was 14 nM. This compound also registered an IC50 on IRAK4 enzyme of less than 1 nM.

As for `CC(C)(O)[C@H](F)CNC(=O)c1cnc(-c2ccc3cc(C#N)cnn23)cc1Nc1ccc(-c2ccon2)cc1` [Example 773, (R)-6-(3-cyanopyrrolo[1,2-b]pyridazin-7-yl)-N-(2-fluoro-3-hydroxy-3-methylbutyl)-4-((4-(isoxazol-3-yl)phenyl)amino) nicotinamide], the EC50 in the experiment with TNFα came to 43 nM. The compound further returned a half-inhibitory concentration (IC50) at IRAK4 enzyme of 1 nM.

In the case of `CC(C)(O)[C@H](F)CNC(=O)c1cnc(-c2ccc3cc(C#N)cnn23)cc1Nc1ccc(-c2ccon2)nc1` [Example 775, (R)-6-(3-cyanopyrrolo[1,2-b]pyridazin-7-yl)-N-(2-fluoro-3-hydroxy-3-methylbutyl)-4-((6-(isoxazol-3-yl)pyridin-3-yl)amino)nicotinamide], in the experiment on TNFα, the EC50 turned out to be 25 nM. At IRAK4 enzyme, this compound had an IC50 of less than 1 nM.

For the compound `CC(C)(O)[C@H](F)CNC(=O)c1cnc(-c2ccc3cc(C#N)cnn23)cc1N[C@H]1C[C@H](Cn2cncn2)C1` [Example 776, 4-(((1r,3R)-3-((1H-1,2,4-triazol-1-yl)methyl)cyclo-butyl)amino)-6-(3-cyano-pyrrolo[1,2-b]pyridazin-7-yl)-N-((R)-2-fluoro-3-hydroxy-3-methylbutyl) nicotinamide], in the experiment on TNFα, the EC50 worked out at 32 nM. Also, the IC50 on IRAK4 enzyme stood at 1 nM.

As for `CC(C)(O)[C@H](F)CNC(=O)c1cnc(-c2ccc3cc(C#N)cnn23)cc1N[C@H]1CC[C@H](c2ccon2)CC1` [Example 777, 6-(3-cyanopyrrolo[1,2-b]pyridazin-7-yl)-N-((R)-2-fluoro-3-hydroxy-3-methylbutyl)-4-(((1r,4R)-4-(isoxazol-3-yl)cyclohexyl)amino)nicotinamide], the EC50 with TNFα is 15 nM. This compound showed an IC50 on IRAK4 enzyme of less than 1 nM.

In the case of `CC(C)(O)[C@H](F)CNC(=O)c1cnc(-c2ccc3cc(C#N)cnn23)cc1Nc1ccc(-n2nccn2)nc1` [Example 778, (R)-4-((6-(2H-1,2,3-triazol-2-yl)pyridin-3-yl)amino)-6-(3-cyanopyrrolo[1,2-b]pyridazin-7-yl)-N-(2-fluoro-3-hydroxy-3-methyl-butyl)nicotinamide], the EC50 with TNFα was found to be 51 nM. This compound had a half-inhibitory concentration (IC50) against IRAK4 enzyme of less than 1 nM.

Take `CC(C)(O)[C@H](F)CNC(=O)c1cnc(-c2ccc3cc(C#N)cnn23)cc1N[C@H]1CC[C@H](n2cncn2)CC1` [Example 779, 4-(((1r,4R)-4-(1H-1,2,4-triazol-1-yl)cyclohexyl)amino)-6-(3-cyano-pyrrolo[1,2-b]pyridazin-7-yl)-N-((R)-2-fluoro-3-hydroxy-3-methylbutyl) nicotinamide]: in the experiment with TNFα, the EC50 was 28 nM. Further, the IC50 at IRAK4 enzyme was less than 1 nM.

As to `CC(C)(O)[C@H](F)CNC(=O)c1cnc(-c2ccc3cc(C#N)cnn23)cc1NC12CCC(N3CCOCC3)(CC1)CC2` [Example 780, (R)-6-(3-cyanopyrrolo[1,2-b]pyridazin-7-yl)-N-(2-fluoro-3-hydroxy-3-methylbutyl)-4-((4-morpholinobicyclo[2.2.2]octan-1-yl)amino)nicotinamide], the EC50 with TNFα stood at 38 nM. The compound further came in with a concentration for half-maximal inhibition (IC50) against IRAK4 enzyme of 1 nM.

As to `CC(C)(O)[C@H](F)CNC(=O)c1cnc(-c2ccc3cc(C#N)cnn23)cc1NC1CCC2(CC1)COC2` [Example 781, (R)-4-(2-oxaspiro[3.5]nonan-7-ylamino)-6-(3-cyanopyrrolo[1,2-b]pyridazin-7-yl)-N-(2-fluoro-3-hydroxy-3-methyl-butyl)nicotinamide], the concentration giving a half-maximal response (EC50) in the experiment on TNFα stood at 90 nM. In addition, the 50% inhibitory concentration (IC50) against IRAK4 enzyme is less than 1 nM.

For the compound `Cn1cnc2cc(Nc3cc(-c4ccc5cc(C#N)cnn45)ncc3C(=O)NC[C@@H](F)C(C)(C)O)cnc21` [Example 782, (R)-6-(3-cyanopyrrolo[1,2-b]pyridazin-7-yl)-N-(2-fluoro-3-hydroxy-3-methylbutyl)-4-((3-methyl-3H-imidazo[4,5-b]pyridin-6-yl)amino)nicotinamide], the half-maximal effective concentration (EC50) with TNFα was found to be 29 nM. Further, the 50% inhibitory concentration (IC50) on IRAK4 enzyme is less than 1 nM.
